The test system of test [1] is p52 (NF-kB2) nuclear translocation in HeLa cells. Description: p52 nuclear translocation assay (non-classical NF-kB signaling), high content imaging. The settings on record: 100 ng/mL anti-lymphotoxin beta receptor antibody for 5 hours, read-out: p52 HeLa Transloc Assay (IC50). The test is classed as cell-based. Put shortly:
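HeLa cells in 10% FBS medium were treated with compound (0.2% DMSO final), then stimulated 5 h with 100 ng/mL anti-lymphotoxin beta receptor antibody. After fixation, cells were immunostained for p52 (2 ug/mL antibody) with DRAQ5 nuclear stain and imaged by high-content imaging. IC50 in µM was derived from the nuclear/cytoplasmic signal ratio.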

For test [2], the target named is nuclear factor-kappa B (NF-kB)-inducing kinase (NIK) (Homo sapiens (Human), UniProt Q99558). Description: NIK Enzyme Inhibition Assay (Transcreener ADP fluorescence polarization). The format is biochemical. The note with it: read-out: NIK ADP-FP (Ki uM). The essentials: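 Baculovirus/insect-cell-expressed NIK (0.2-1 nM) incubated with compounds 1-3.5 h at 10 uM ATP. Buffer: 50 mM HEPES pH 7.2, 10 mM MgCl2, 2 mM DTT, 1% DMSO. ADP detected by Transcreener fluorescence polarization (ADP antibody, AlexaFluor 633 tracer) after EDTA quench.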
Chain of nuclear factor-kappa B (NF-kB)-inducing kinase (NIK) (Q99558 whole entry): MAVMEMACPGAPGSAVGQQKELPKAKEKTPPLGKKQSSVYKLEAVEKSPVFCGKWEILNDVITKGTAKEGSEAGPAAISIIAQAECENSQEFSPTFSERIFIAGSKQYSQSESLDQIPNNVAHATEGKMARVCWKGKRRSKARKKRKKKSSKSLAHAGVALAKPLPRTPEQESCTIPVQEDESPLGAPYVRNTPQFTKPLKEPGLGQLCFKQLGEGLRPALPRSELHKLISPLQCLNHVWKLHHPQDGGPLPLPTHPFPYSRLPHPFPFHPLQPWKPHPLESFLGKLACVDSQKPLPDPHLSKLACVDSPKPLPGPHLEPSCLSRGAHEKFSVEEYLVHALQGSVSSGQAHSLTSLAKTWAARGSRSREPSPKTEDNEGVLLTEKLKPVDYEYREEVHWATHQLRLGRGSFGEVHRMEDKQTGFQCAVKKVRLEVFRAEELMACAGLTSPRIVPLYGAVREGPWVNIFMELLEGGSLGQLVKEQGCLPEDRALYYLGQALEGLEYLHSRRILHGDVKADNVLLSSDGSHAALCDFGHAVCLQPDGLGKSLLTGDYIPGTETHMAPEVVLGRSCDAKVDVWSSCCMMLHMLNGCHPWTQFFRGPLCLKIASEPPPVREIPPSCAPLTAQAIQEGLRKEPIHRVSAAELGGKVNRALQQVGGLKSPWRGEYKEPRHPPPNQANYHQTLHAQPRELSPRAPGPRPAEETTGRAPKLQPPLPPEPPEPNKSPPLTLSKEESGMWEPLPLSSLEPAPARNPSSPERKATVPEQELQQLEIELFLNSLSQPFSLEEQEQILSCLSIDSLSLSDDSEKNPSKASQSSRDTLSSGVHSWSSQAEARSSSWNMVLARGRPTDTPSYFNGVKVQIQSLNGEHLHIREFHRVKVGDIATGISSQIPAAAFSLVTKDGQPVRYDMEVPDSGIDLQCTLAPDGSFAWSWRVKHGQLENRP
In general terms: Fluorescence polarisation rises when a labelled molecule tumbles more slowly, as on binding a larger partner.

In test [3] the test system is REL-A (p65) nuclear translocation in HeLa cells. Briefly: REL-A nuclear translocation assay (classical NF-kB signaling), high content imaging. The test is classed as cell-based. The note with it: compounds 4.5 hours, then 10 ng/mL TNF-α for 30 minutes, read-out: REL-A HeLa Transloc Assay (IC50). The essentials: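 HeLa cells in 10% FBS medium preincubated with compounds (0.2% DMSO final) for 4.5 hours, then stimulated with 10 ng/mL TNF-α for 30 minutes. Fixed cells stained with 400 ng/mL anti-REL-A antibody, Alexa488 secondary and DRAQ5; translocation quantified by imaging as nuclear to cytoplasmic signal ratio.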

The mark [4] stands for this setting: purified NIK 0.2-1 nM, 10 uM ATP, Morrison's quadratic equation.

Where two headings read alike, the source gives them in different places.

Consider `CNC(=O)c1c(C(N)=O)nc2n1CCOc1cc(F)c(C#CC(C)(O)c3ccccn3)cc1-2` (stereo not drawn) [Example 180, 9-fluoro-10-[3-hydroxy-3-(2-pyridyl)but-1-ynyl]-N3-methyl-5,6-dihydroimi-dazo[1,2-d][1,4]benzoxazepine-2,3-dicarboxamide], for which the 50% inhibitory concentration (IC50) was 870 nM in test [1] (Homo sapiens, HeLa, 5 h) and more than 20000 nM in test [3] (Homo sapiens, HeLa). Also, in test [2] (setting [4]), the inhibition constant (Ki) came to 0.0012 µM.

Turning to `Cn1c(C(N)=O)nc2c1C1CC(C1)c1cc(F)c(C#C[C@@](C)(O)c3ncccn3)cc1-2` [Example 283, (R)-8-fluoro-9-(3-hydroxy-3-(pyrimidin-2-yl)but-1-yn-1-yl)-3-methyl-3,4,5,6-tetrahydro-4,6-methanobenzo[3,4]cyclo-hepta[1,2-d]imidazole-2-carboxamide], the half-inhibitory concentration (IC50) in test [1] (Homo sapiens, HeLa, 5 h) amounted to 881 nM; in test [3] (Homo sapiens, HeLa), 20000 nM. Also, the Ki in test [2] (setting [4]) was 0.00016 µM.

As for `Cc1c(C(N)=O)nc2n1C1CC(C1)c1cc(F)c(C#C[C@@](C)(O)c3ncccn3)cc1-2` [Example 321, 9-fluoro-10-[(3R)-3-hydroxy-3-pyrim-idin-2-yl-but-1-ynyl]-3-methyl-5,6,7,12-tet-rahydro-5,7-methanobenzo[c]imidazo[1,2-a]azepine-2-carboxamide], the IC50 in test [1] (Homo sapiens, HeLa, 5 h) was 3000 nM; in test [3] (Homo sapiens, HeLa), more than 20000 nM. Moreover, the Ki in test [2] (setting [4]) is 0.012 µM.

With `CC(C)(O)c1c(C(N)=O)nc2n1C1CC(C1)c1cc(F)c(C#CC3(O)CCCC3)cc1-2` [Example 324, 9-fluoro-10-[2-(1-hydroxycyclopentyl)ethy-nyl]-3-(1-hydroxy-1-methyl-ethyl)-5,6,7,12-tetrahydro-5,7-methanobenzo[c]imi-dazo[1,2-a]azepine-2-carboxamide], the IC50 is 1100 nM in test [1] and more than 20000 nM in test [3]. Also, the Ki in test [2] stood at 0.0089 µM.

Turning to `Cc1cc([C@](C)(O)C#Cc2cc3c(cc2F)C2CC(C2)n2c-3nc(C(N)=O)c2C(C)(C)O)no1` [Example 326], the IC50 in test [1] (Homo sapiens, HeLa, 5 h) was 1200 nM; in test [3] (Homo sapiens, HeLa), 5600 nM. Moreover, the Ki in test [2] (setting [4]) is 0.0057 µM.

On to `CN1CC[C@@](O)(C#Cc2cc3c(cc2F)C2CC(C2)n2c-3nc(C(N)=O)c2C(C)(C)O)C1=O` [Example 327, 9-fluoro-3-(1-hydroxy-1-methyl-ethyl)-10-[2-[(3R)-3-hydroxy-1-methyl-2-oxo-pyrrolidin-3-yl]ethynyl]-5,6,7,12-tet-rahydro-5,7-methanobenzo[c]imidazo[1,2-a]azepine-2-carboxamide], for which the 50% inhibitory concentration (IC50) in test [1] (Homo sapiens, HeLa, 5 h) is 7800 nM; in test [3] (Homo sapiens, HeLa), more than 20000 nM. For the same compound, the Ki in test [2] (setting [4]) was 0.00685 µM.

In the case of `CC(C)(O)C#Cc1cc2c(cc1F)C1CC(C1)n1c-2nc(C(N)=O)c1C1(O)COC1` [Example 339, 9-fluoro-10-(3-hydroxy-3-methyl-but-1-ynyl)-3-(3-hydroxyoxetan-3-yl)-5,6,7,12-tetrahydro-5,7-methanobenzo[c]imi-dazo[1,2-a]azepine-2-carboxamide], the 50% inhibitory concentration (IC50) in test [1] (Homo sapiens) is 2600 nM; in test [3] (Homo sapiens), more than 20000 nM. Moreover, the Ki in test [2] (setting [4]) is 0.007 µM.

As to `Cn1nccc1Cn1c(C(N)=O)nc2c1C1CC(C1)c1cc(F)c(C#CC(C)(C)O)cc1-2` [Example 391], the half-inhibitory concentration (IC50) in test [1] (Homo sapiens, HeLa, 5 h) was found to be 36.8 nM; in test [3] (Homo sapiens, HeLa) it was 20000 nM. Besides, the Ki in test [2] (setting [4]) is 0.002 µM.

As for `Cc1nc([C@](C)(O)C#Cc2ccc3c(c2)-c2nc(C(N)=O)n(C)c2C2CC3C2)no1` [Example 426], the IC50 in test [1] (Homo sapiens, HeLa, 5 h) is 406 nM; in test [3] (Homo sapiens, HeLa) it was more than 20000 nM. Besides, the inhibitory constant (Ki) in test [2] (setting [4]) stood at 0.0018 µM.

As usually defined, the IC50 is the point on the concentration scale where inhibition reaches its midpoint. As a reminder, the Ki is a measure of affinity in units of concentration, obtained from inhibition or displacement.

For the origin of these results see patent US9034866B2 (Genentech, Inc., priority 2012, dated 2015).
